Assay results from PubChem BioAssay AID1845207 (Molecular Pharmacology Branch, DTP, NCI, 2023).

System: NCI-H1876 tumor spheroid viability
Test: Anticancer human tumor NCI-H1876 cell line growth inhibition;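 also: spheroids exposed to compounds for seven days before the viability read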;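 as to viability, T/C: percent of DMSO vehicle control viability so 100% = vehicle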
Details: spheroids with HUVEC and MSC; for IC50: curve of first compound; for viability, T/C: stronger effect = lower value
Excerpt: Multicellular complex tumor spheroid response to DNA repair inhibitors in combination with DNA-damaging drugs
This study explores the anticancer activities of DNA-damaging drugs and inhibitors of DNA damage repair, both as single agents and in combinations. Complex tumor spheroids comprised of malignant cells, endothelial cells and mesenchymal stem cells served as an in vitro model for human solid tumors. This model system incorporates physiologically relevant features and patient-derived or established malignant cell lines with clinically relevant genetic alterations from many tumor types. Twenty-six patient-derived or established malignant cell lines were evaluated representing sarcoma, melanoma, small cell lung cancer (SCLC), non-small cell lung cancer (NSCLC), as well as bladder, ovarian and pancreatic cancers. The concentration ranges selected for each drug and investigational agent were based upon clinically achievable concentrations if the clinical Cmax of the agent was known.
Compounds. The drugs and compounds olaparib (NSC753686), talazoparib (NSC767125), berzosertib (NSC777718), elimusertib (NSC800525), nedisertib (NSC802822), VX-984 (NSC792969), AZD-1390 (NSC803789), temozolomide (NSC362856), topotecan (NSC609699), trabectedin (NSC813783), staurosporine (NSC755774), and gemcitabine (NSC613327) were obtained from the National Cancer Institute (NCI) Developmental Therapeutics Program Chemical Repository. The FDA-approved anticancer drug set is available from the Developmental Therapeutics Program at https://dtp.cancer.gov/organization/dscb/obtaining/available_plates.htm. […] The stock solutions were prepared in dimethyl sulfoxide (DMSO, Sigma-Aldrich, St. Louis, MO, cat. D2650) at 400-fold the tested concentration and stored at -70 degrees C. Prior to their use, the stock solutions were diluted in fresh medium and the final DMSO concentration in the assay was 0.25% (v/v). All drugs and investigational agents were tested over a range starting from a high concentration at or near the clinical Cmax and decreasing in half-log increments. If the clinical Cmax for an agent had not been determined, the highest concentration tested was 10 microM.
Cell Lines. The patient-derived cancer cell (PDC) lines: 156681-154-R-J1-PDC, 283228-195-R-J1-PDC, 287954-098-R-J1-PDC, 292921-168-R-J2-PDC, 349418-098-R-PDC, 425362-245-T-J1-PDC, 556581-035-R-J1-PDC, and BL0293-F563-PDC were received from the NCI Patient-Derived Models Repository (PDMR, https://pdmr.cancer.gov). The established cell lines HS-SY-2 (RRID:CVCL_8719), MPNST, and SYO-1 (RRID:CVCL_7146) were obtained from the Sloan Kettering Institute. The alveolar soft parts sarcoma cell line ASPS-1 (RRID:CVCL_S738) was established at the NCI and grown from internal seed stocks. The following established cell lines were purchased from the American Type Culture Collection (ATCC, Manassas, VA): G-401 (ATCC, cat. CRL-1441, RRID:CVCL_0270), SW982 (ATCC, cat. HTB-93, RRID:CVCL_1734), VA-ES-BJ (ATCC, cat. CRL-2138, RRID:CVCL_1785), NCI-H719 (ATCC, cat. CRL-5837, RRID:CVCL_1582), NCI-H196 (ATCC, cat. CRL-5823, RRID:CVCL_1509), NCI-H841 (ATCC, cat. CRL-5845, RRID:CVCL_1595), NCI-H1618 (ATCC, cat. CRL-5879, RRID:CVCL_1480), NCI-H1876 (ATCC, cat. CRL-5902, RRID:CVCL_1503), DMS 114 (ATCC, cat. CRL-2066; RRID:CVCL_1174), NCI-H211 (ATCC, cat. CRL-5824; RRID:CVCL_1529), and SW 1271 (ATCC, cat. CRL-2177, RRID:CVCL_1716). The small cell lung cancer cell line COR-L88 was purchased from Sigma-Aldrich (cat. 92031917-1VL, RRID:CVCL_1141). The non-small cell lung cancer cell lines NCI-H226 (RRID:CVCL_1544) and NCI-H322M (RRID:CVCL_1557) were established at the NCI and grown from internal seed stocks. Pooled donor human umbilical vein endothelial cells (HUVEC, Lonza, cat. CC-2519) and human mesenchymal stem cells (hMSC, Lonza, cat. PT-2501) were purchased from Lonza (Walkersville, MD).
Cell Culture. All cells were maintained in an incubator at 37 degrees C and 5% CO2 with 95% humidity. […]

[1] = second compound 0.003 µM, first compound 0.00949 µM
[2] = second compound 0.003 µM, first compound 0.03 µM
[3] = second compound 0.003 µM, first compound 0.0949 µM
[4] = second compound 0.003 µM, first compound 0.3 µM
[5] = second compound 0.003 µM, first compound 0.949 µM
[6] = second compound 0.003 µM, first compound 3 µM
[7] = second compound 0.00949 µM, first compound 0.00949 µM
[8] = second compound 0.00949 µM, first compound 0.03 µM
[9] = second compound 0.00949 µM, first compound 0.0949 µM
[10] = second compound 0.00949 µM, first compound 0.3 µM
[11] = second compound 0.00949 µM, first compound 0.949 µM
[12] = second compound 0.00949 µM, first compound 3 µM
[13] = second compound 0.03 µM, first compound 0.00949 µM
[14] = second compound 0.03 µM, first compound 0.03 µM
[15] = second compound 0.03 µM, first compound 0.0949 µM
[16] = second compound 0.03 µM, first compound 0.3 µM
[17] = second compound 0.03 µM, first compound 0.949 µM
[18] = second compound 0.03 µM, first compound 3 µM
[19] = second compound 0.0949 µM, first compound 0.00949 µM
[20] = second compound 0.0949 µM, first compound 0.03 µM
[21] = second compound 0.0949 µM, first compound 0.0949 µM
[22] = second compound 0.0949 µM, first compound 0.3 µM
[23] = second compound 0.0949 µM, first compound 0.949 µM
[24] = second compound 0.0949 µM, first compound 3 µM
[25] = second compound 0.3 µM, first compound 0.00949 µM
[26] = second compound 0.3 µM, first compound 0.03 µM
[27] = second compound 0.3 µM, first compound 0.0949 µM
[28] = second compound 0.3 µM, first compound 0.3 µM
[29] = second compound 0.3 µM, first compound 0.949 µM
[30] = second compound 0.3 µM, first compound 3 µM

Structure (SMILES)	IC50 (second compound 0.003 µM) [nM]	IC50 (second compound 0.00949 µM) [nM]	IC50 (second compound 0.03 µM) [nM]	IC50 (second compound 0.0949 µM) [nM]	IC50 (second compound 0.3 µM) [nM]	viability, T/C [3] [%]	viability, T/C [4] [%]	viability, T/C [5] [%]	viability, T/C [6] [%]	viability, T/C [9] [%]	viability, T/C [10] [%]	viability, T/C [11] [%]	viability, T/C [12] [%]	viability, T/C [15] [%]	viability, T/C [16] [%]	viability, T/C [17] [%]	viability, T/C [18] [%]	viability, T/C [21] [%]	viability, T/C [22] [%]	viability, T/C [23] [%]	also measured
CNCc1ccc(-c2cc(-c3nc(-c4ccc(S(=O)(=O)C(C)C)cc4)cnc3N)on2)cc1 + CC[C@@]1(O)C(=O)OCc2c1cc1n(c2=O)Cc2cc3c(CN(C)C)c(O)ccc3nc2-1	56.8	< 9.49	< 9.49	< 9.49	< 9.49	34	46.9	5.62	0.13	26.3	18	5.92	0.13	16.9	19	5.1	0.13	10.2	8.96	3.31	viability, T/C [1]: 68%; viability, T/C [2]: 57.6%; viability, T/C [7]: 46.3%; viability, T/C [8]: 34.2%; viability, T/C [13]: 13.6%; viability, T/C [14]: 14.5%; viability, T/C [19]: 8.73%; viability, T/C [20]: 8.03%; viability, T/C [24]: 0.13%; viability, T/C [25]: 3.51%; viability, T/C [26]: 3.44%; viability, T/C [27]: 3.53%; viability, T/C [28]: 3.41%; viability, T/C [29]: 1.38%; viability, T/C [30]: 0.19%
Cn1ncnc1[C@H]1c2n[nH]c(=O)c3cc(F)cc(c23)N[C@@H]1c1ccc(F)cc1 + CC[C@@]1(O)C(=O)OCc2c1cc1n(c2=O)Cc2cc3c(CN(C)C)c(O)ccc3nc2-1	57.9	< 9.49	< 9.49	< 9.49	< 9.49	36	39.9	6.31	0.18	29	19.4	6.41	0.15	18.9	18	5.53	0.13	10.8	10.3	3.73	viability, T/C [1]: 71%; viability, T/C [2]: 60.4%; viability, T/C [7]: 44.6%; viability, T/C [8]: 37.4%; viability, T/C [13]: 14.9%; viability, T/C [14]: 28.7%; viability, T/C [19]: 9.15%; viability, T/C [20]: 28.8%; viability, T/C [24]: 0.14%; viability, T/C [25]: 3.72%; viability, T/C [26]: 3.65%; viability, T/C [27]: 3.75%; viability, T/C [28]: 3.83%; viability, T/C [29]: 1.56%; viability, T/C [30]: 13.9%
O=C(c1cc(Cc2n[nH]c(=O)c3ccccc23)ccc1F)N1CCN(C(=O)C2CC2)CC1 + CC[C@@]1(O)C(=O)OCc2c1cc1n(c2=O)Cc2cc3c(CN(C)C)c(O)ccc3nc2-1	325	< 94.9	< 94.9	< 94.9	< 94.9	60.1	49.8	41.9	30.9	21.2	21	19.2	20.6	12.3	12.6	13.7	23.3	35.7	7.72	8.21	viability, T/C (second compound 0.003 µM, first compound 9.49 µM): 22%; viability, T/C (second compound 0.003 µM, first compound 30 µM): 16%; viability, T/C (second compound 0.00949 µM, first compound 9.49 µM): 35.5%; viability, T/C (second compound 0.00949 µM, first compound 30 µM): 15.7%; viability, T/C (second compound 0.03 µM, first compound 9.49 µM): 18.2%; viability, T/C (second compound 0.03 µM, first compound 30 µM): 14.3%; viability, T/C [24]: 10%; viability, T/C (second compound 0.0949 µM, first compound 9.49 µM): 12.8%; viability, T/C (second compound 0.0949 µM, first compound 30 µM): 14.4%; viability, T/C [27]: 4.06%; viability, T/C [28]: 3.8%; viability, T/C [29]: 4.04%; viability, T/C [30]: 5.04%; viability, T/C (second compound 0.3 µM, first compound 9.49 µM): 13.5%; viability, T/C (second compound 0.3 µM, first compound 30 µM): 9.66%
